From patent publication US12552825B2 (Zikani Therapeutics, Inc., priority 2019, dated 2026)
Converted amounts (≈) assume the structure as drawn.

Columns and labels:
Format in all cases: cell-based
P. aeruginosa MP-3 = test: MIC determination by CLSI broth dilution, P. aeruginosa MP-3; conditions: Pseudomonas aeruginosa, MP3, strain MP-3
K. pneumoniae MP-546 = test: MIC determination by CLSI broth dilution, K. pneumoniae MP-546; conditions: Klebsiella pneumoniae, MP546, CLSI broth dilution; strain MP-546
E. coli MP-4 = test: MIC determination by CLSI broth dilution, E. coli MP-4; conditions: Escherichia coli, MP4, CLSI broth dilution; strain MP-4
S. aureus MP-12 = test: microbe, parasite or virus in culture; conditions: Staphylococcus aureus, MP12, read-out: MIC S. aureus MP-12
A. baumannii MP-15 = test: MIC determination by CLSI broth dilution, A. baumannii MP-15; conditions: Acinetobacter baumannii, MP15, strain MP-15, read-out: MIC A. baumanii MP-15
K. pneumoniae MP-648 = test: MIC determination by CLSI broth dilution, K. pneumoniae MP-648; conditions: Klebsiella pneumoniae, MP648, CLSI broth dilution; strain MP-648

Structure (SMILES)	MIC (P. aeruginosa MP-3)	MIC (K. pneumoniae MP-546)	MIC (E. coli MP-4)	MIC (S. aureus MP-12)	MIC (A. baumannii MP-15)	MIC (K. pneumoniae MP-648)
CO[C@]1(C)C[C@@H](C)CN(C)[C@@H](CN2CCN(S(=O)(=O)c3cn(C)cn3)CC2)[C@H](C)OC(=O)C(C)(C)C(=O)[C@H](C)[C@H]1O[C@@H]1O[C@H](C)C[C@H](N(C)C)[C@H]1O [Compound 81, (2S,3S,6R,8R,9R,10R)-9-(((2S,3R,4S,6R)-4-(dimethylamino)-3-hydroxy-6-methyltetrahydro-2H-pyran-2-yl)oxy)-8-methoxy-2,4,6,8,10,12,12-heptamethyl-3-((4-((1-methyl-1H-imidazol-4-yl)sulfonyl)piperazin-1-yl)methyl)-1-oxa-4-azacyclotridecane-11,13-dione]	> 32 µg/mL	> 32 µg/mL	> 32 µg/mL	4 to 32 µg/mL (≈ 5.28 to 42.3 µM)	> 32 µg/mL	
CO[C@]1(C)C[C@@H](C)CN(C)[C@@H](CCCN2CCCCC2)COC(=O)C(C)(C)C(=O)[C@H](C)[C@H]1O[C@@H]1O[C@H](C)C[C@H](N(C)C)[C@H]1O [Compound 83, (3S,6R,8R,9R,10R)-9-(((2S,3R,4S,6R)-4-(dimethylamino)-3-hydroxy-6-methyltetrahydro-2H-pyran-2-yl)oxy)-8-methoxy-4,6,8,10,12,12-hexamethyl-3-(3-(piperidin-1-yl)propyl)-1-oxa-4-azacyclotridecane-11,13-dione]	> 32 µg/mL	< 4 µg/mL	< 4 µg/mL	4 to 32 µg/mL (≈ 6.39 to 51.1 µM)	> 32 µg/mL	
CO[C@]1(C)C[C@@H](C)CN(C)[C@@H](C(=O)N2CCN(C(C)C)CC2)[C@H](C)OC(=O)C(C)(C)C(=O)[C@H](C)[C@H]1O[C@@H]1O[C@H](C)C[C@H](N(C)C)[C@H]1O [Compound 91, (2S,3R,6R,8R,9R,10R)-9-(((2S,3R,4S,6R)-4-(dimethylamino)-3-hydroxy-6-methyltetrahydro-2H-pyran-2-yl)oxy)-3-(4-isopropylpiperazine-1-carbonyl)-8-methoxy-2,4,6,8,10,12,12-heptamethyl-1-oxa-4-azacyclotridecane-11,13-dione]	> 32 µg/mL	> 32 µg/mL	> 32 µg/mL	> 32 µg/mL	> 32 µg/mL	
CO[C@]1(C)C[C@@H](C)CN(C)[C@@H](C(=O)N2CCN(C)CC2)[C@H](C)OC(=O)C(C)(C)C(=O)[C@H](C)[C@H]1O[C@@H]1O[C@H](C)C[C@H](N(C)C)[C@H]1O [Compound 97, (2S,3R,6R,8R,9R,10R)-9-(((2S,3R,4S,6R)-4-(dimethylamino)-3-hydroxy-6-methyltetrahydro-2H-pyran-2-yl)oxy)-8-methoxy-2,4,6,8,10,12,12-heptamethyl-3-(4-methylpiperazine-1-carbonyl)-1-oxa-4-azacyclotridecane-11,13-dione]	> 32 µg/mL	> 32 µg/mL	> 32 µg/mL	> 32 µg/mL	> 32 µg/mL	
CO[C@]1(C)C[C@@H](C)CN(C)[C@@H](CN(C)Cc2nccn2C)COC(=O)C(C)(C)C(=O)[C@H](C)[C@H]1O[C@@H]1O[C@H](C)C[C@H](N(C)C)[C@H]1O [Compound 104, (3S,6R,8R,9R,10R)-9-(((2S,3R,4S,6R)-4-(Dimethylamino)-3-hydroxy-6-methyltetrahydro-2H-pyran-2-yl)oxy)-8-methoxy-4,6,8,10,12,12-hexamethyl-3-((methyl((1-methyl-11H-imidazol-2-yl)methyl)amino)methyl)-1-oxa-4-azacyclotridecane-11,13-dione]	> 32 µg/mL	> 32 µg/mL	4 to 32 µg/mL (≈ 6.27 to 50.2 µM)	> 32 µg/mL	> 32 µg/mL	
CO[C@]1(C)C[C@@H](C)CN(C)[C@@H](CN2CCN(C(=O)C(F)(F)F)CC2)[C@H](C)OC(=O)C(C)(C)C(=O)[C@H](C)[C@H]1O[C@@H]1O[C@H](C)C[C@H](N(C)C)[C@H]1O [Compound 109, (2S,3S,6R,8R,9R,10R)-9-(((2S,3R,4S,6R)-4-(dimethylamino)-3-hydroxy-6-methyltetrahydro-2H-pyran-2-yl)oxy)-8-methoxy-2,4,6,8,10,12,12-heptamethyl-3-((4-(2,2,2-trifluoroacetyl)piperazin-1-yl)methyl)-1-oxa-4-azacyclotridecane-11,13-dione]	> 32 µg/mL	> 32 µg/mL	4 to 32 µg/mL (≈ 5.64 to 45.1 µM)	4 to 32 µg/mL (≈ 5.64 to 45.1 µM)	> 32 µg/mL	
CO[C@]1(C)C[C@@H](C)CN(C)[C@@H](CN2CCN(C(=O)C(C)(C)C)CC2)[C@H](C)OC(=O)C(C)(C)C(=O)[C@H](C)[C@H]1O[C@@H]1O[C@H](C)C[C@H](N(C)C)[C@H]1O [Compound 114, (2S,3S,6R,8R,9R,10R)-9-(((2S,3R,4S,6R)-4-(dimethylamino)-3-hydroxy-6-methyltetrahydro-2H-pyran-2-yl)oxy)-8-methoxy-2,4,6,8,10,12,12-heptamethyl-3-((4-pivaloylpiperazin-1-yl)methyl)-1-oxa-4-azacyclotridecane-11,13-dione]	> 32 µg/mL	> 32 µg/mL	> 32 µg/mL	4 to 32 µg/mL (≈ 5.74 to 45.9 µM)	> 32 µg/mL	
CO[C@]1(C)C[C@@H](C)CN(C)[C@@H](C(=O)N2CCN(CC(F)(F)F)CC2)[C@H](C)OC(=O)C(C)(C)C(=O)[C@H](C)[C@H]1O[C@@H]1O[C@H](C)C[C@H](N(C)C)[C@H]1O [Compound 130, (2S,3R,6R,8R,9R,10R)-9-(((2S,3R,4S,6R)-4-(dimethylamino)-3-hydroxy-6-methyltetrahydro-2H-pyran-2-yl)oxy)-8-methoxy-2,4,6,8,10,12,12-heptamethyl-3-(4-(2,2,2-trifluoroethyl)piperazine-1-carbonyl)-1-oxa-4-azacyclotridecane-11,13-dione]	> 32 µg/mL	> 32 µg/mL	> 32 µg/mL	> 32 µg/mL	> 32 µg/mL	
CCC(=O)N1CCN(C[C@H]2[C@H](C)OC(=O)C(C)(C)C(=O)[C@H](C)[C@@H](O[C@@H]3O[C@H](C)C[C@H](N(C)C)[C@H]3O)[C@](C)(OC)C[C@@H](C)CN2C)CC1 [Compound 133, (2S,3S,6R,8R,9R,10R)-9-(((2S,3R,4S,6R)-4-(dimethylamino)-3-hydroxy-6-methyltetrahydro-2H-pyran-2-yl)oxy)-8-methoxy-2,4,6,8,10,12,12-heptamethyl-3-((4-propionylpiperazin-1-yl)methyl)-1-oxa-4-azacyclotridecane-11,13-dione]	> 32 µg/mL	> 32 µg/mL	> 32 µg/mL	4 to 32 µg/mL (≈ 5.98 to 47.8 µM)	> 32 µg/mL	
CO[C@]1(C)C[C@@H](C)CN(C)[C@@H](CN2CCN(C(C)=O)CC2)[C@H](C)OC(=O)C(C)(C)C(=O)[C@H](C)[C@H]1O[C@@H]1O[C@H](C)C[C@H](N(C)C)[C@H]1O [Compound 135, (2S,3S,6R,8R,9R,10R)-3-((4-acetylpiperazin-1-yl)methyl)-9-(((2S,3R,4S,6R)-4-(dimethylamino)-3-hydroxy-6-methyltetrahydro-2H-pyran-2-yl)oxy)-8-methoxy-2,4,6,8,10,12,12-heptamethyl-1-oxa-4-azacyclotridecane-11,13-dione]	> 32 µg/mL	> 32 µg/mL	> 32 µg/mL	4 to 32 µg/mL (≈ 6.11 to 48.9 µM)	> 32 µg/mL	
CO[C@]1(C)C[C@@H](C)CN(C)[C@@H](C(=O)N2CCNCC2)[C@H](C)OC(=O)C(C)(C)C(=O)[C@H](C)[C@H]1O[C@@H]1O[C@H](C)C[C@H](N(C)C)[C@H]1O [Compound 136, (2S,3R,6R,8R,9R,10R)-9-(((2S,3R,4S,6R)-4-(dimethylamino)-3-hydroxy-6-methyltetrahydro-2H-pyran-2-yl)oxy)-8-methoxy-2,4,6,8,10,12,12-heptamethyl-3-(piperazine-1-carbonyl)-1-oxa-4-azacyclotridecane-11,13-dione]	> 32 µg/mL	> 32 µg/mL	> 32 µg/mL	> 32 µg/mL	> 32 µg/mL	
CO[C@]1(C)C[C@@H](C)CN(C)[C@@H](CN2CCN(S(=O)(=O)c3ccc(C)cc3)CC2)[C@H](C)OC(=O)C(C)(C)C(=O)[C@H](C)[C@H]1O[C@@H]1O[C@H](C)C[C@H](N(C)C)[C@H]1O [Compound 139, (2S,3S,6R,8R,9R,10R)-9-(((2S,3R,4S,6R)-4-(dimethylamino)-3-hydroxy-6-methyltetrahydro-2H-pyran-2-yl)oxy)-8-methoxy-2,4,6,8,10,12,12-heptamethyl-3-((4-tosylpiperazin-1-yl)methyl)-1-oxa-4-azacyclotridecane-11,13-dione]	> 32 µg/mL	> 32 µg/mL	> 32 µg/mL	4 to 32 µg/mL (≈ 5.21 to 41.7 µM)	> 32 µg/mL	
CO[C@]1(C)C[C@@H](C)CN(C)[C@@H](CN2CCN(S(=O)(=O)N(C)C)CC2)[C@H](C)OC(=O)C(C)(C)C(=O)[C@H](C)[C@H]1O[C@@H]1O[C@H](C)C[C@H](N(C)C)[C@H]1O [Compound 142, 4-(((2S,3S,6R,8R,9R,10R)-9-(((2S,3R,4S,6R)-4-(dimethylamino)-3-hydroxy-6-methyltetrahydro-2H-pyran-2-yl)oxy)-8-methoxy-2,4,6,8,10,12,12-heptamethyl-11,13-dioxo-1-oxa-4-azacyclotridecan-3-yl)methyl)-N,N-dimethylpiperazine-1-sulfonamide]	> 32 µg/mL	> 32 µg/mL	> 32 µg/mL	4 to 32 µg/mL (≈ 5.56 to 44.4 µM)	> 32 µg/mL	
CO[C@]1(C)C[C@@H](C)CN(C)[C@H](/C=C/CN2Cc3cccnc3C2)COC(=O)C(C)(C)C(=O)[C@H](C)[C@H]1O[C@@H]1O[C@H](C)C[C@H](N(C)C)[C@H]1O [Compound 152]	> 32 µg/mL		< 4 µg/mL	4 to 32 µg/mL (≈ 6.07 to 48.6 µM)	> 32 µg/mL	4 to 32 µg/mL (≈ 6.07 to 48.6 µM)
CO[C@]1(C)C[C@@H](C)CN(C)[C@H](/C=C/CN2CCCC2)COC(=O)C(C)(C)C(=O)[C@H](C)[C@H]1O[C@@H]1O[C@H](C)C[C@H](N(C)C)[C@H]1O [Compound 153]	> 32 µg/mL		< 4 µg/mL	4 to 32 µg/mL (≈ 6.56 to 52.5 µM)	> 32 µg/mL	< 4 µg/mL
